From patent US20260315487A1, “IKK-ALPHA INHIBITORS” (Cancer Research Technology Limited, priority 2023, published 2026)

Experiments:
IKKα over IKKβ = assay: selectivity for IKKα over IKKβ from the kinase assay; type: biochemical
From the text: To examine the pyrrolo[2,3 -b]pyridines as an alternative scaffold, we adopted the AIPP core because it had similar dimensions to 1 SU909, with HBD/HBA motifs positioned at the scaffold extremities to interact with both the hinge region and the G-loop wall of IKKα, a rationale we had previously proposed as the basis for imparting selectivity. A preliminary set of AIPP derivatives was designed to explore its utility as an IKK-targeting scaffold, whilst incorporating additional functionality through which to introduce selectivity for the IKKα isoform (2-4 SU1087, SU1266 and SU1253; FIG. 3). This was achieved by initially adopting two different approaches: either appending a hydrophobic moiety to the pyrrolo[2,3 -b]pyridine motif as a fused form to afford the tricyclic derivatives 2 and 3 SU1266 and SU1087, or as a phenyl substituent to introduce flexibility with the central pyrrolo[2,3 -b]pyridine moiety in 4 SU1253 . […] The pyrrolo[2,3 -b]pyridine was bound to the hinge region in the classical HBA/HBD motif with the GK+3 NH and C═O backbone, whilst the aminoindazole projected towards the top of the pocket to interact with the G-loop (FIG. 4A). […] In both isoforms, the 2 -phenyl moiety was oriented out from the hinge towards the exposed solvent area.
To shift the selectivity profile towards IKKα, we selected 4 SU1253 for structural optimization based on the notion that sigma-bond rotation between the phenyl ring and the pyrrolo[2,3 -b]pyridine would inbuild the flexibility required to engage with the three dimensional array of residues nearby to exploit differences between the two isoforms. Furthermore, this would enable the inclusion of moieties that could also project into solvent and address solubility considerations. Small groups (NH2, OH, OMe, OEt and F) were initially introduced into the phenyl ring to evaluate their impact on the selectivity profile against both IKKs (5 a-g SU1354 -SU1373, Table 2 ). Our goal was to achieve a 1:50 selectivity ratio of IKKα to IKKβ, with a minimum IKKβ inhibitory Ki of 500 nM.

Turbidimetric solubility = type: physicochemical
haspin = target: T1, haspin (Homo sapiens, UniProt Q8TF76); assay: kinome profiling at 1 μM, haspin; type: biochemical
T1 sequence (Q8TF76 1-798): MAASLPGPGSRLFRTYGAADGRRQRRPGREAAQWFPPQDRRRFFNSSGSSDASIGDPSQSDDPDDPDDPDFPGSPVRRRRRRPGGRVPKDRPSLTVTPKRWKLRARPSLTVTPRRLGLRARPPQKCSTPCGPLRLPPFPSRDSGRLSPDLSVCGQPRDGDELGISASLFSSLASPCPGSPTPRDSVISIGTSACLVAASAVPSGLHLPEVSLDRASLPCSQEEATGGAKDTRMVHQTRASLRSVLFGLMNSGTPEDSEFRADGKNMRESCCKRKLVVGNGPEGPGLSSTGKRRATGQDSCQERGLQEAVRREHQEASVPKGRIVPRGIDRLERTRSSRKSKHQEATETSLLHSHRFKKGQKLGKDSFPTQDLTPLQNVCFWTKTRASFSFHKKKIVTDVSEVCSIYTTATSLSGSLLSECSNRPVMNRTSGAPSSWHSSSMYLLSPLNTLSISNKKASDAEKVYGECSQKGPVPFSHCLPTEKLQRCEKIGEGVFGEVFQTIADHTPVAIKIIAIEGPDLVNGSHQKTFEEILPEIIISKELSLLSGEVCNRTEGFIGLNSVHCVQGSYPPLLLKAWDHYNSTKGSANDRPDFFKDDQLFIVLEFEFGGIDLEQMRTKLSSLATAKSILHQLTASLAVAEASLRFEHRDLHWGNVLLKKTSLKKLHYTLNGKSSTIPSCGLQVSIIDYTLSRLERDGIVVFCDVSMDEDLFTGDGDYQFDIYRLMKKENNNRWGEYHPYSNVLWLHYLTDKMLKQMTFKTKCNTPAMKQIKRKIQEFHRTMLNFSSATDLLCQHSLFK
From the text: We profiled three compounds from the series across the kinome (FIG. 11). […] To identify the structural drivers for CDK inhibition, we obtained X-ray crystal structures of 5 y and 6 g SU1336 and SU1349 with CDK-2 (FIG. 12A) to potentially identify possible routes towards introducing selectivity for IKKα over the CDK enzymes as well as IKKβ. […] All three derivatives form complexes with CDK2 with the pyrrolo[2,3 -b]pyridine H-bonding to GK+3 (Leu 83 ) and the aminoindazole projected towards the G-loop (FIG. 12A), forming H-bonds with Glu 51 and Lys 33 at the back of the pocket. The adoption of the 4 SU1253 -type orientation, rather than the flipped pose observed in IKKα, is probably facilitated by Tr-stacking between the aminoindazole and the GK residue, which in the CDKs is Phe, rather than Met. […] For 6 g SU1349, the hydrophobic pendant benzyloxy group points out into solvent, but can form face-to-edge Tr-Tr interactions with Phe 82 and His 84 from the hinge. Exchanging the hydrophobic pendant benzyloxy group for the morpholinoethyl-containing substituent in 5 y SU1336 removes any direct interaction with these hinge residues, preferring to sit in a more solvent-exposed position, as befits a basic side chain that will be protonated at physiological pH (FIG. 12B).

Row | SMILES | selectivity for IKKα over IKKβ, in words (IKKα over IKKβ) | selectivity for IKKα over IKKβ (IKKα over IKKβ; ratio of Ki) [fold] | solubility, in words (Turbidimetric solubility) | inhibition at 1 µM (haspin) [%]
1 | Nc1n[nH]c2ccc(-c3ccnc4[nH]c(-c5ccnc(OCc6ccccc6)c5)cc34)cc12 [6g SU1349, 5-(2-(2-(Benzyloxy)pyridin-4-yl)-1 H-pyrrolo[2,3-b]pyridin-4-yl)-1 H-indazol-3-amine] | essential selectivity profile | 209 | most soluble in the series that displayed selectivity | –
2 | Nc1n[nH]c2ccc(-c3ccnc4[nH]c(-c5cccc(OCc6ccccc6)c5)cc34)cc12 [5r SU1261, 5-(2-(3-(benzyloxy)phenyl)-1 H-pyrrolo[2,3-b]pyridin-4-yl)-1 H-indazol-3-amine] | – | – | – | > 80
